Source: PubChem BioAssay (NCI)
Values joined by “and” are separate entries in the source; they are usually repeats but may differ in a detail not shown here. Equal entries are not always repeated.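 A five-concentration, 48-hour dose response in 96-well plates underlies each endpoint, interpolated linearly between surrounding concentrations. Here, GI50 denotes the concentration required for 50% inhibition of growth. Definition used: TGI = concentration required for complete inhibition of growth.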

Columns and labels:
Test in all cases: NCI tumour cell line growth inhibition, 48 h
COLO 205 colon = test system: COLO 205 colon
HCT-116 colon = test system: HCT-116 colon
HL-60(TB) leukemia = test system: HL-60(TB) leukemia
HOP-62 NSCLC = test system: HOP-62 NSCLC
K-562 leukemia = test system: K-562 leukemia
LOX IMVI melanoma = test system: LOX IMVI melanoma
MCF7 breast = test system: MCF7 breast
SN12C renal = test system: SN12C renal
SNB-19 CNS = test system: SNB-19 CNS
SK-MEL-2 melanoma = test system: SK-MEL-2 melanoma

| Structure (SMILES) | TGI (COLO 205 colon) | TGI (HCT-116 colon) | TGI (HL-60(TB) leukemia) | TGI (HOP-62 NSCLC) | TGI (K-562 leukemia) | TGI (LOX IMVI melanoma) | TGI (MCF7 breast) | TGI (SN12C renal) | TGI (SNB-19 CNS) | TGI (SK-MEL-2 melanoma) | GI50 (HL-60(TB) leukemia) | GI50 (K-562 leukemia) | GI50 (MCF7 breast) | GI50 (SK-MEL-2 melanoma) | GI50 (SN12C renal) | GI50 (SNB-19 CNS) | GI50 (COLO 205 colon) | GI50 (HCT-116 colon) | GI50 (HOP-62 NSCLC) |
| --- | --- | --- | --- | --- | --- | --- | --- | --- | --- | --- | --- | --- | --- | --- | --- | --- | --- | --- | --- |
| Cc1nc2ccccc2c(=O)n1NC(=O)c1ccccc1O | > 100 µM | > 100 µM | > 100 µM | > 100 µM | > 100 µM | > 100 µM | > 100 µM | > 100 µM | > 100 µM |  |  |  |  |  |  |  |  |  |  |
| CC1=CCC[C@@H]2[C@@](C)(Cc3cc(O)ccc3O)[C@H](C)CC[C@@]12C | 36.5 µM | 18.8 µM | 6.6 µM | 22.1 µM | 36 µM | 17.7 µM | 18.7 µM | 27 µM | 21.5 µM | 27.9 µM |  |  |  |  |  |  |  |  |  |
| O=C1NC(=O)C(C(c2ccc(Cl)cc2)C2C(=O)NC(=O)NC2=O)C(=O)N1 | > 100 µM | > 100 µM | > 100 µM | > 100 µM | > 100 µM | > 100 µM | > 100 µM | > 100 µM | > 100 µM | > 100 µM |  |  |  |  |  |  |  |  |  |
| CCCC(=O)OC[n+]1cccc(-c2c(COC(=O)NC(C)C)c(COC(=O)NC(C)C)c3n2CCC3)c1 | > 100 µM | > 100 µM | > 67.3 µM | > 100 µM | > 100 µM | > 100 µM | > 100 µM | > 100 µM | > 100 µM | > 100 µM |  |  |  |  |  |  |  |  |  |
| CCOC(=O)c1cc2c([nH]1)C(=O)CC1=C2CCN1Cc1ccccc1 | 31.8 µM | 25.8 µM | 54.1 µM |  | 25.9 µM | 29.1 µM | 32.3 µM | 35.3 µM | 31.8 µM | 42.5 µM |  |  |  |  |  |  |  |  |  |
| O=C(O)c1cc(=O)[nH]c(=S)[nH]1 | > 100 µM | > 100 µM | > 100 µM | > 100 µM | > 100 µM | > 100 µM | > 100 µM | > 100 µM | > 100 µM | > 100 µM |  |  |  |  |  |  |  |  |  |
| COc1cc2c3c(n(CCN(C)C)c(=O)c2cc1OC)-c1cc2c(cc1C3=O)OCO2 | > 100 µM | 19.3 µM | > 35.8 µM | > 86.1 µM | 97.4 µM | > 21.5 µM | > 33.8 µM | > 100 µM | > 100 µM | > 100 µM | 1.02 µM | 2.53 µM | 0.297 µM | > 96.1 µM | 4.38 µM | > 20.7 µM |  |  |  |
| Oc1c(-c2ccccc2)sc2ccccc12 | 28.2 µM | 71 µM | 45.4 µM | 45.8 µM | 67.5 µM | 32.3 µM | 65.8 µM |  | > 100 µM | 41 µM |  |  |  |  |  |  |  |  |  |
| Cn1cc(C[C@@H](N)C(=O)O)c2ccccc21 | > 100 µM | > 100 µM | > 100 µM | > 100 µM | > 100 µM | > 100 µM | > 100 µM | > 100 µM | > 100 µM | > 100 µM |  |  |  |  |  |  |  |  |  |
| CN1CCN(C(=S)N(C(=O)c2ccco2)c2ccccc2)CC1 | > 100 µM |  | > 100 µM |  | > 100 µM | > 100 µM | > 100 µM | > 100 µM | > 100 µM | > 100 µM |  |  |  |  |  |  |  |  |  |
| CC(C)CC(=O)NC(NC(C)C)(C(F)(F)F)C(F)(F)F | > 100 µM | > 100 µM | > 100 µM | > 100 µM | > 100 µM | > 100 µM | > 100 µM | > 100 µM | > 100 µM | > 100 µM |  |  |  |  |  |  |  |  |  |
| Nc1nc(NNc2ccc(Cl)c(Cl)c2)cc(=O)[nH]1 | 61.1 µM | > 100 µM | 64.4 µM | > 100 µM | 54.7 µM | 33.1 µM | 72.5 µM | > 100 µM | > 100 µM |  |  |  |  |  |  |  |  |  |  |
| Cc1cc2c(cc1C)[n+](=O)c(N1CCN(c3ccc([N+](=O)[O-])cc3)CC1)c(C#N)n2[O-] | > 100 µM | > 100 µM | > 100 µM | 31.7 µM |  | > 100 µM | > 100 µM | > 100 µM | 49.6 µM | 66 µM |  |  |  |  |  |  |  |  |  |
| O=c1cc(CC(O)(C(F)(F)Cl)C(F)(F)Cl)[nH]n1-c1ccccc1 | > 100 µM | > 100 µM | > 100 µM | > 100 µM | > 100 µM | > 100 µM | > 100 µM | > 100 µM | > 100 µM |  |  |  |  |  |  |  |  |  |  |
| c1ccc2c3c([nH]c2c1)C1c2[nH]c4ccccc4c2CCN1CC3 | 35.2 µM | 23.3 µM | 66.5 µM | 27.8 µM |  | 34.8 µM | 30.8 µM | 32.6 µM |  | 64.2 µM |  |  |  |  |  |  |  |  |  |
| CCOc1ccc(/C=C/[N+](=O)[O-])cc1 | 15.5 µM | 3.55 µM | 49 µM | 26.3 µM | > 100 µM |  | 13.5 µM | 28.3 µM | 22 µM | 33 µM | 8.83 µM | 4.52 µM | 3.4 µM | 17.1 µM | 14.7 µM | 8.95 µM | 4.71 µM | 1.93 µM | 12.5 µM |
| Cc1ccc(S(=O)(=O)Oc2ccc(OS(=O)(=O)c3ccc(C)cc3)c3c2C(=O)c2ccccc2C3=O)cc1 | > 100 µM | > 100 µM | > 100 µM | > 100 µM | > 100 µM | > 100 µM | > 100 µM | > 100 µM | > 100 µM | > 100 µM |  |  |  |  |  |  |  |  |  |
| COc1ccc(-n2c(C)nc3ccc(NC4OCC(O)C(O)C4O)cc3c2=O)cc1 (configuration not stated) | > 100 µM | 40.4 µM and 39.3 µM | 62.4 µM and 68.2 µM | > 100 µM | 87.2 µM and 95.1 µM | 42.6 µM and 50.8 µM | > 100 µM | > 100 µM | > 100 µM | > 100 µM |  |  |  |  |  |  |  |  |  |
| CCCN(CCCCN1C(=O)c2ccccc2C1=O)CC1COc2ccccc2O1 (configuration not stated) | > 100 µM | > 100 µM | 95.9 µM | > 100 µM | > 100 µM | > 100 µM | > 100 µM | > 100 µM | > 100 µM | > 100 µM |  |  |  |  |  |  |  |  |  |
| O=[N+]([O-])c1cccc2nc3ccccc3c(NCCCN3CCOCC3)c12 | 0.0303 µM | < 0.0298 µM | 0.157 µM | 0.0618 µM |  | 1.66 µM | 0.103 µM | 0.0455 µM | 0.177 µM | 0.0362 µM |  |  |  |  |  |  |  |  |  |
| CCN1CC2=C(NC(=S)NC2c2cc(OC)c(OC)c(OC)c2)/C(=C/c2cc(OC)c(OC)c(OC)c2)C1 (configuration not stated) | 52.9 µM | > 100 µM | 56.7 µM | > 100 µM | 66.3 µM | > 100 µM | > 100 µM |  | > 100 µM | > 100 µM |  |  |  |  |  |  |  |  |  |
